Entries after “also recorded” stand apart in the source; their conditions may differ.
Experiments:
PARP [1] = assay: Immunoblotting of protein PARylation in cells after MNNG or H2O2 treatment; type: cell-based, human; conditions: for H2O2-induced PARP activation (immunoblotting): 1 μM treatment
Description: We sought to develop an approach towards a global characterization of Asp/Glu-ADP-ribosylation. […] The major cellular enzymatic activity for degrading PAR is from poly-ADP-ribose glycohydrolase (PARG)^2.
Cells and Reagents: HCT116 and HEK293T cells were purchased from ATCC and were maintained in Dulbecco's modified Eagle's medium (DMEM) supplemented with 10% fetal bovine serum. PARP inhibitors were purchased from Selleck. […] Other chemicals and reagents were obtained from Sigma unless indicated otherwise.
Immunoblotting analysis: Samples were subjected to electrophoresis using the standard SDS-PAGE method. Proteins were transferred to a nitrocellulose membrane (Whatman). Membranes were blocked with a TBST buffer (25 mM Tris-HCl, pH 7.5, 150 mM NaCl, 0.05% Tween 20) containing 3% nonfat dried milk, and probed overnight with primary antibodies at 4° C. and for 1 h at RT with peroxidase-conjugated secondary antibodies. Blots were developed using enhanced chemiluminescence, exposed on autoradiograph film and developed using standard methods.

PARP [2] = assay: SILAC quantitative mass spectrometric analysis of the Asp/Glu-ADP-ribosylated proteome in HCT116 shPARG cells; type: cell-based, human; conditions: for change in protein Asp/Glu-ADP-ribosylation compared with that of Olaparib: 1 μM
Protocol: SILAC cell culture: Cells (HCT116 shPARG) were grown in the SILAC media as described previously^23. Both light and heavy DMEM were supplemented with 10% dialyzed FBS (Invitrogen). Where indicated, cells were pretreated with 1 μM Olaparib for 40 min and were stimulated with 2 mM H2O2 for 5 min We performed two experiments using this experimental design with single labeling with Lys (sample digested with Lys-C) or double labeling with Lys and Arg (sample digested with trypsin). Each experiment was composed of two technical replicate analyses. The same experiment (Lys labeling only) was repeated for four other PARP inhibitors, including A966492 (1 μM), AG14361 (1 μM), Iniparib (50 μM) and 3-AB (50 μM).
Sample preparation for mass spectrometric analysis: Cells were lysed in SDS lysis buffer (1% SDS, 10 mM HEPES pH 7.0, 2 mM MgCl2, 500 U Benzonase). Lysates were washed with SDS lysis buffer for three times using centricon ultrafiltration units (MWCO=10,000 Da, Millipore). Lysates were reduced by adding DTT to a final concentration of 3 mM, followed by incubation at room temperature for 20 min Cysteines were alkylated by adding iodoacetamide to a final concentration of 50 mM, followed by incubation in the dark for 20 min Lysates were digested with LysC (Wako) or trypsin (Promega) at a 1:100 (enzyme:substrate) ratio for 2 hrs at RT. pH of the lysates were adjusted to 8.5 and the lysates were incubated with m-aminophenylborinic acid agarose for 1 hr at RT. Beads were washed with the SDS wash buffer (1% SDS, 100 mM HEPES pH 8.5, 150 mM NaCl) for three times, and then the wash buffer (100 mM HEPES pH 8.5, 150 mM NaCl) for five times. Beads were incubated with 0.5 M NH2OH overnight. Released peptides were desalted on SepPak C18 columns (Waters) according to manufacturer's instructions.
Mass spectrometry analysis and data processing: Samples were analyzed by LC-MS/MS on an LTQ-Velos Pro Orbitrap mass spectrometer (Thermo Fischer Scientific, San Jose, Calif.) using a top twenty method^23. MS/MS spectra were searched against a composite database of the human IPI protein database and its reversed complement using the Sequest algorithm. Search parameters allowed for a static modification of 57.02146 Da for Cys and a dynamic modification of addition of 15.0109 Da to Asp and Glu, and, when applicable, the stable isotope (10.00827 Da) and (8.01420 Da) on Arg and Lys, respectively. […] Localization of ADP-ribosylation sites was assessed by the ModScore algorithm based on the observation of site-specific fragment ions^25. Sites with scores≧13 (p≦0.05) were considered localized. Peptide quantification was performed as previously described^23 and ADP-ribosylation motifs were extracted using the Motif-X algorithm using a significance threshold of P<0.001^26.

tankyrase = conditions: cited from earlier work
[3] = 1 μM Olaparib, 2 mM H2O2, HCT116 shPARG

## NC(=O)c1cccc2[nH]c(-c3ccc([C@@H]4CCCN4)cc3F)nc12 [A96692]
PARP [1]
  H2O2-induced PARP activation (immunoblotting): potently inhibited
PARP [2]
  change in protein Asp/Glu-ADP-ribosylation compared with that of Olaparib: correlated well

## CN(C)Cc1ccc(-c2nc3cccc4c3n2CCNC4=O)cc1 [AG14361]
PARP [1]
  H2O2-induced PARP activation (immunoblotting): potently inhibited
PARP [2]
  change in protein Asp/Glu-ADP-ribosylation compared with that of Olaparib: correlated well

## NC(=O)c1ccc(I)c([N+](=O)[O-])c1 [Iniparib]
PARP [1]; 50 μM
  H2O2-induced hyper-PARylation / PARP activity (immunoblotting): little effect
PARP [2]; Iniparib 50 μM
  change in ADP-ribosylation level of most of the identified peptides: less than two fold
  decrease of a peptide from the RNA helicase DDX21: about 4 fold
  effect on PARP activity in intact cells: negligible effect; also recorded: failed to inhibit PARP
PARP [2]; Iniparib 50 μM, 3-AB 50 μM
  potency relative to 3-AB: lower than the prototype PARP inhibitor 3-AB

## O=C(c1cc(Cc2n[nH]c(=O)c3ccccc23)ccc1F)N1CCN(C(=O)C2CC2)CC1 [Olaparib]
PARP [1]; PARG-depleted cells, pretreatment with the inhibitor
  increased PARylation after MNNG or H2O2 treatment: blocked
PARP [2]; 1 μM Olaparib
  decrease of a peptide from the RNA helicase DDX21: more than 11 fold
PARP [2]; 1 μM Olaparib 40 min pretreatment, 2 mM H2O2 5 min, HCT116 shPARG
  modified peptides whose intensity decreased by more than two-fold: more than 81%
PARP [2]; [3]
  ADP-ribosylation of two evolutionarily conserved Glu residues on PCNA: dramatically decreased
  ADP-ribosylation of two tankyrase substrates, CASC3 and BLZF1: little change
  decrease in level of PARP1 automodified peptide comprising E483: approximately 120 fold
PARP [2]; quantitative mass spectrometric analysis
  sensitivity of the majority of PARylation events to treatment: sensitive
tankyrase
  inhibition of tankyrase: does not inhibit
